Among the data in patent publication US20250388565A1, “ESTROGEN RECEPTOR ALPHA DEGRADERS AND METHODS OF USE THEREOF” (Relay Therapeutics, Inc., priority 2022, published 2025) are DC50 values, retold here.

For this experiment, the target named is T1, ERα protein (HiBiT-tagged) in ESR1_HiBiT KI MCF7 cells (Homo sapiens, UniProt P03372).
T1 sequence (P03372 1-595): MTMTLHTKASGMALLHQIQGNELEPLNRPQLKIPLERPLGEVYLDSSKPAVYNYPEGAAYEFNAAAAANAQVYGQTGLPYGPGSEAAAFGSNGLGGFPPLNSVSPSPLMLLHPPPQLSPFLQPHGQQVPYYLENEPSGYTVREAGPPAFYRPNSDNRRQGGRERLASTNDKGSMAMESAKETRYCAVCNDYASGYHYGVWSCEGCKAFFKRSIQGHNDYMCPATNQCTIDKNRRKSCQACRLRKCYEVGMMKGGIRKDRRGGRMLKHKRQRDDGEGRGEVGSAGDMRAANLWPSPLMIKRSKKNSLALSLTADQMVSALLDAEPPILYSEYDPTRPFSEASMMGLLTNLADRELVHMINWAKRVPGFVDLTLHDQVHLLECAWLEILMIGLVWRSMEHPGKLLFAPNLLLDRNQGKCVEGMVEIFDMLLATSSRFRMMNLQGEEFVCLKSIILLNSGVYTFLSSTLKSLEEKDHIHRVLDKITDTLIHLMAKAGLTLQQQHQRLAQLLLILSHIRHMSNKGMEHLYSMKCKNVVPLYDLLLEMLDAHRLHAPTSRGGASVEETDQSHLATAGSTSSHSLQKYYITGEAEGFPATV
The experiment can be described thus: Nano Glo HiBiT Lytic Degradation Assay. It counts as cell-based. As to conditions: 6 hours with compound, 14-point dose response 1:3, bell-shape curve fit, half-maximal effect of first Hill model, read-out: MCF7 ESR1 HiBiT - (DC50). In a few lines: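 HiBiT-tagged endogenous ERα remaining in MCF7 knock-in cells was quantified by lytic luminescence after a 6 h treatment. DC50 values derive from a bell-shaped curve, taken at the first Hill component's half-maximal effect.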
As to `O=C1CC[C@H](N2Cc3cc(N4CCN(CC5CCN(c6ccc([C@@H]7c8ccc(O)cc8CC[C@@H]7c7ccccc7)cn6)CC5)CC4)ccc3C2=O)C(=O)N1` [II-80], the half-maximal degradation concentration (DC50) came out at 0.68 nM.
Consider `O=C1CCC(c2ccc(N3CCN(CC4CCN(c5ccc([C@@H]6c7ccc(O)cc7CC[C@@H]6c6ccccc6)cc5)CC4)CC3)cc2)C(=O)N1` (stereo partly drawn) [Compound I-39, 3-[4-[4-[[1-[4-[(1R,2S)-6-hydroxy-2-phenyl-tetralin-1-yl]phenyl]-4-piperidyl]methyl]piperazin-1-yl]phenyl]piperidine-2,6-dione], for which the DC50 is 469 nM.
As for `CC(C)[C@@H]1OCc2cc(O)ccc2[C@@H]1c1ccc(N2CCC(CN3CCN(c4ccc5c(c4)CN([C@H]4CCC(=O)NC4=O)C5=O)CC3)CC2)cc1` (single isomer, unassigned) [Compound I-226], the figure is 59 nM; as for `O=C1CCC(c2ccc(N3CCN(CC4CCN(c5ccc([C@H]6c7ccc(O)cc7CC[C@H]6c6ccccc6)cc5)CC4)CC3)cc2)C(=O)N1` (stereo partly drawn) [Compound I-11, 3-[4-[4-[[1-[4-[(1S,2R)-6-hydroxy-2-phenyl-tetralin-1-yl]phenyl]-4-piperidyl]methyl]piperazin-1-yl]phenyl]piperidine-2,6-dione], at least 10000 nM; as for `COc1ccc2c(c1)CC[C@H](c1ccccc1)[C@@H]2c1ccc(N2CCC(CN3CCN(c4ccc5c(c4)CN([C@H]4CCC(=O)NC4=O)C5=O)CC3)CC2)cc1` [II-59], at least 10000 nM.
As for `Cc1cc(F)cc(F)c1[C@@H]1CCc2cc(O)ccc2[C@@H]1c1ccc(N2CCC(CN3CCN(c4ccc5c(c4)CN([C@H]4CCC(=O)NC4=O)C5=O)CC3)CC2)cc1` [II-73], the figure is 361 nM; as for `Cc1c(F)cccc1[C@@H]1OCc2cc(O)ccc2[C@@H]1c1ccc(N2CCC(CN3CCN(c4ccc5c(c4)CN([C@H]4CCC(=O)NC4=O)C5=O)CC3)CC2)cc1` (single isomer, unassigned) [Compound I-380], 77 nM.
For the molecule `O=C1CC[C@@H](c2ccc(N3CCC4(CCN(CC5CCN(c6ccc([C@@H]7c8ccc(O)cc8CO[C@@H]7c7ccccc7)cc6)CC5)C4)CC3)cc2)C(=O)N1` (single isomer, unassigned) [Compound I-390], the DC50 came to 22 nM.
As for `O=C1CCC(n2ncc3cc(N4CCN(CC5CCN(c6ccc([C@@H]7c8ccc(O)cc8CC[C@@H]7c7ccccc7)cc6)CC5)CC4)ccc32)C(=O)N1` (stereo partly drawn) [Compound I-302], the figure is 2 nM; as for `Cn1nc([C@H]2CCC(=O)NC2=O)c2ccc(N3CCN(CC4CCN(c5ccc([C@@H]6c7ccc(O)cc7CO[C@@H]6c6ccccc6)cc5)CC4)CC3)cc21` (single isomer, unassigned) [Compound I-394], 0.39 nM.
Regarding `O=C1CC[C@H](N2Cc3cc(N4CCN(CC5CCN(c6ccc([C@@H]7c8ccccc8CC[C@@H]7c7ccccc7)cc6)CC5)CC4)ccc3C2=O)C(=O)N1` [Compound I-47, (S)-3-(1-oxo-5-(4-((1-(4-((1R,2S)-2-phenyl-1,2,3,4-tetrahydronaphthalen-1-yl)phenyl)piperidin-4-yl)methyl)piperazin-1-yl)isoindolin-2-yl)piperidine-2,6-dione], the half-maximal degradation concentration (DC50) came to 79 nM.
As to `O=C1CC[C@H](N2Cc3cc(N4CCN(CC5CCN(c6ccc([C@H]7c8ccc(O)cc8COC78CCCCC8)cc6)CC5)CC4)ccc3C2=O)C(=O)N1` [Compound I-122, (S)-3-(5-(4-((1-(4-((S)-7′-hydroxyspiro[cyclohexane-1,3′-isochroman]-4′-yl)phenyl)piperidin-4-yl)methyl)piperazin-1-yl)-1-oxoisoindolin-2-yl)piperidine-2,6-dione], the half-maximal degradation concentration (DC50) was at least 10000 nM.
As for `O=C1CC[C@H](N2Cc3cc(N4CCN(CC5CCN(c6ccc(C7=C(c8ccccc8)CCc8cc(C(=O)O)ccc87)cc6)CC5)CC4)ccc3C2=O)C(=O)N1` [Compound I-7, (S)-5-(4-(4-((4-(2-(2,6-dioxopiperidin-3-yl)-1-oxoisoindolin-S-yl)piperazin-1-yl)methyl)piperidin-1-yl)phenyl)-6-phenyl-7,8-dihydronaphthalene-2-carboxylic acid], the figure is at least 10000 nM; as for `O=C1CC[C@H](N2Cc3cc(N4CCN(CC5CCN(c6ccc([C@H]7c8ccc(O)cc8CO[C@H]7c7ccccc7F)cc6)CC5)CC4)ccc3C2=O)C(=O)N1` [Compound I-348, (S)-3-(5-(4-((1-(4-((3R,4S)-3-(2-fluorophenyl)-7-hydroxyisochroman-4-yl)phenyl)piperidin-4-yl)methyl)piperazin-1-yl)-1-oxoisoindolin-2-yl)piperidine-2,6-dione], at least 10000 nM; as for `CC1(C)CC([C@H]2CCc3cc(O)ccc3[C@H]2c2ccc(N3CCC(CN4CCN(c5ccc6c(c5)CN([C@H]5CCC(=O)NC5=O)C6=O)CC4)CC3)cc2)CC(C)(C)C1` [Compound I-116, (3.5)-3-[5-[4-[[1-[4-[(1S,2S)-6-hydroxy-2-(3,3,5,5-tetramethylcyclohexyl)tetralin-1-yl]phenyl]-4-piperidyl]methyl]piperazin-1-yl]-1-oxo-isoindolin-2-yl]piperidine-2,6-dione], at least 10000 nM.
As for `Cn1nc(N2CCC(=O)NC2=O)c2ccc(N3CCN(CC4CCN(c5ccc([C@@H]6c7ccc(O)cc7CO[C@@H]6c6ccccc6)cc5)CC4)CC3)cc21` [Compound I-396, 1-(6-(4-((1-(4-((3S,4R)-7-hydroxy-3-phenylisochroman-4-yl)phenyl)piperidin-4-yl)methyl)piperazin-1-yl)-1-methyl-1H-indazol-3-yl)dihydropyrimidine-2,4 (1H,3H)-dione], the figure is 0.99 nM; as for `O=C1CC[C@H](N2Cc3cc(N4CCN(CC5CCN(c6ccc([C@@H]7c8ccc(O)cc8CC[C@@H]7c7ccccn7)cc6)CC5)CC4)ccc3C2=O)C(=O)N1` [Compound I-115], 0.63 nM; as for `O=C1CC[C@H](N2Cc3cc(N4CCN(CC5CCN(c6ccc([C@@H]7c8ccc(O)cc8CC[C@@H]7C7CCCCC7)cc6)CC5)CC4)ccc3C2=O)C(=O)N1` [Compound I-6, (3S)-3-[5-[4-[[1-[4-[(1R,2R)-2-cyclohexyl-6-hydroxy-tetralin-1-yl]phenyl]-4-piperidyl]methyl]piperazin-1-yl]-1-oxo-isoindolin-2-yl]piperidine-2,6-dione], 2.24 nM.
Take `CC(C)C[C@@H]1OCc2cc(O)ccc2[C@H]1c1ccc(N2CCC(CN3CCN(c4ccc5c(c4)CN([C@H]4CCC(=O)NC4=O)C5=O)CC3)CC2)cc1` (single isomer, unassigned) [Compound I-222]: the 50% degradation concentration (DC50) was 0.32 nM.
As for `O=C1CC[C@H](c2ccc(N3CCC4(CCN(CC5CCN(c6ccc([C@@H]7c8ccc(O)cc8CO[C@@H]7c7ccccc7)cc6)CC5)C4)CC3)cc2)C(=O)N1` (single isomer, unassigned) [Compound I-389], the figure is 0.28 nM.
As for `O=C1CC[C@H](N2Cc3cc(N4CCN(CC5CCN(c6ccc([C@@H]7c8ccc(O)cc8CO[C@@H]7c7ccc(F)cc7)cc6)CC5)CC4)ccc3C2=O)C(=O)N1` [Compound I-35, (S)-3-(5-(4-((1-(4-((3S,4R)-3-(4-fluorophenyl)-7-hydroxyisochroman-4-yl)phenyl)piperidin-4-yl)methyl)piperazin-1-yl)-1-oxoisoindolin-2-yl)piperidine-2,6-dione], the figure is 0.3 nM.
On to `O=C1CCC(c2ccc3c(c2)C[C@H](N2CCN(CC4CCN(c5ccc([C@@H]6c7ccc(O)cc7CC[C@@H]6c6ccccc6)cc5)CC4)CC2)CC3)C(=O)N1` (single isomer, unassigned) [Compound I-423], for which the DC50 was at least 10000 nM.
As for `O=C1CCC(c2ccc3c(c2)C[C@@H](N2CCN(CC4CCN(c5ccc([C@@H]6c7ccc(O)cc7CC[C@@H]6c6ccccc6)cc5)CC4)CC2)CC3)C(=O)N1` (single isomer, unassigned) [Compound I-422], the figure is 141 nM; as for `C[C@H]1C[C@@H](CN2CCN(c3ccc4c(c3)CN(C3CCC(=O)NC3=O)C4=O)CC2)CCN1c1ccc([C@@H]2c3ccc(O)cc3CC[C@@H]2c2ccccc2)cc1` (single isomer, unassigned) [II-49], 6 nM; as for `Cc1ccccc1[C@H]1CCc2cc(O)ccc2[C@H]1c1ccc(N2CCC(CN3CCN(c4ccc5c(c4)CN([C@H]4CCC(=O)NC4=O)C5=O)CC3)CC2)cc1` (single isomer, unassigned) [II-34], 40 nM.
As for `C[C@@H]1O[C@H](C2CCCCC2)[C@@H](c2ccc(N3CCC(CN4CCN(c5ccc6c(c5)CN([C@H]5CCC(=O)NC5=O)C6=O)CC4)CC3)cc2)c2ccc(O)cc21` (single isomer, unassigned) [Compound I-252], the figure is 22 nM.
In the case of `Cc1cc([C@H]2CCc3cc(O)ccc3[C@H]2c2ccc(N3CCC(CN4CCN(c5ccc6c(c5)CN([C@H]5CCC(=O)NC5=O)C6=O)CC4)CC3)cc2)n(C)n1` (single isomer, unassigned) [Compound I-414], the 50% degradation concentration (DC50) came to 0.37 nM.

One may read the DC50 as the concentration giving 50% degradation.
